For assay [1], the system named is SKBR3 (PI3Kα wild type) cells. The experiment in a line: CellTiter-Glo 2.0 luminescent cell viability assay, 72 hours, SKBR3 cells. The assay is classed as cell-based. To be noted: SKBR3 (PI3Kα wild type) cells, CellTiter-Glo, approximately 72 hours, read-out: SKBR3 (WT) Viability IC50. How it is done: (§1) The ability of a compound of Formula (I) to decrease the viability of cells was measured using CellTiter-Glo 2.0 (CTG) Luminescent Cell Viability Assay (#G9241) obtained from Promega (Madison, WI).
To prepare assay plates for viability assays, cells were trypsinized, resuspended in fresh media, and viable cells were counted utilizing trypan blue exclusion.
(§2) Assay day 1, cells were dosed using an Echo Liquid Handler (Beckman Coulter) with compounds at a 10 um starting concentration and serially diluted (1:4) for a total of 10 concentrations. Cells were incubated for approximately 72 hours with the compounds (solubilized in DMSO) at 37° C. After 72 hours of treatment, cell plates were equilibrated to room temperature before adding 15 μl of CTG to each well, plates were then covered in aluminum foil to protect from light, incubated at room temperature for 30 minutes on a microtiter plate shaker, and luminescence readings were collected using a CLARIOstar microplate reader (BMG Labtech, Germany). Percent of vehicle control values were plotted as log (inhibitor) vs. response-Variable slope (four parameters) for curve fitting and IC50 values were determined using XLfit.
(ATP-based viability assays read luminescence as a measure of living cells.)

Assay [2] has as its system T47D (PI3Kα H1047R mutant) cells. Description: CellTiter-Glo 2.0 luminescent cell viability assay, 72 hours, T47D cells. The format is cell-based. To be noted: T47D (PI3Kα H1047R mutant) cells, CellTiter-Glo, approximately 72 hours, read-out: T47D (H1047R mutant) Viability IC50. On the procedure:
This Example illustrates that exemplary compounds of the present invention decrease the viability of cells.
as §1
To prepare assay plates for viability assays, cells were trypsinized, resuspended in fresh media, and viable cells were counted utilizing trypan blue exclusion. T47D, SKBR3, or MKN1 cells were seeded at 1000 cells in 30 μl per well in a solid white flat bottom 384 cell culture plate (Perkin Elmer #6007680) and incubated at 37° C. overnight.
as §2

Like-named read-outs stand apart in the source and are kept apart here.

As for `Cc1cc([C@@H](C)Nc2ccccc2C(=O)O)c2nc(N3CC(c4cccnc4)C3)c(C)c(=O)n2c1` [Example 11-21, (R)-2-((1-(3,7-dimethyl-4-oxo-2-(3-(pyridin-3-yl)azetidin-1-yl)-4H-pyrido[1,2-a]pyrimidin-9-yl)ethyl)amino)benzoic acid], the IC50 in assay [1] (Homo sapiens, SK-BR-3, 72 h) is more than 10000 nM; in assay [2] (Homo sapiens, T47D, 72 h), 239 nM.
On to `Cc1cc([C@@H](C)Nc2ccccc2C(=O)O)c2nc(N3CC4CC5CC4C3C5O)c(C)c(=O)n2c1` (stereo partly drawn) [Example 11-22, 2-(((1R)-1-(2-(6-hydroxyhexahydro-3,5-methanocyclopenta[b]pyrrol-1(2H)-yl)-3,7-dimethyl-4-oxo-4H-pyrido[1,2-a]pyrimidin-9-yl)ethyl)amino)benzoic acid], for which the IC50 in assay [1] (Homo sapiens, SK-BR-3, 72 h) is more than 10000 nM; in assay [2] (Homo sapiens, T47D, 72 h), 192 nM.
Turning to `Cc1cc([C@@H](C)Nc2ccccc2C(=O)O)c2nc(N3CCC(N4CCC(F)(F)CC4)CC3)c(C)c(=O)n2c1` [Example 11-23, (R)-2-((1-(2-(4,4-difluoro-[1,4′-bipiperidin]-1′-yl)-3,7-dimethyl-4-oxo-4H-pyrido[1,2-a]pyrimidin-9-yl)ethyl)amino)benzoic acid], the 50% inhibitory concentration (IC50) was more than 10000 nM in assay [1] (Homo sapiens, SK-BR-3, 72 h) and 139 nM in assay [2] (Homo sapiens, T47D, 72 h).
The corresponding values for `Cc1cc([C@@H](C)Nc2ccccc2C(=O)O)c2nc(N3CC4CC(C)(C)C4C3)c(C)c(=O)n2c1` (stereo partly drawn) [Example 11-24, 2-(((1R)-1-(2-(6,6-dimethyl-3-azabicyclo[3.2.0]heptan-3-yl)-3,7-dimethyl-4-oxo-4H-pyrido[1,2-a]pyrimidin-9-yl)ethyl)amino)benzoic acid] are more than 10000 nM and 123 nM.
The corresponding values for `Cc1cc([C@@H](C)Nc2ccccc2C(=O)O)c2nc(N3CC4(C3)CC3(CCC3)C4)c(C)c(=O)n2c1` [Example 11-26, (R)-2-((1-(2-(2-azadispiro[3.1.3^6.1^4]decan-2-yl)-3,7-dimethyl-4-oxo-4H-pyrido[1,2-a]pyrimidin-9-yl)ethyl)amino)benzoic acid] are more than 10000 nM and 216 nM.
The like results for `Cc1cc([C@@H](C)Nc2ccccc2C(=O)O)c2nc(N3CC4CCCCCCC4C3)c(C)c(=O)n2c1` (stereo partly drawn) [Example 11-27, 2-(((1R)-1-(2-(decahydro-2H-cycloocta[c]pyrrol-2-yl)-3,7-dimethyl-4-oxo-4H-pyrido[1,2-a]pyrimidin-9-yl)ethyl)amino)benzoic acid] were, in that order, more than 10000 nM and 1600 nM.
For the compound `Cc1cc([C@@H](C)Nc2ccccc2C(=O)O)c2nc(N3CC(O)C4(CCC4)C3)c(C)c(=O)n2c1` (stereo partly drawn) [Example 11-28, 2-(((1R)-1-(2-(8-hydroxy-6-azaspiro[3.4]octan-6-yl)-3,7-dimethyl-4-oxo-4H-pyrido[1,2-a]pyrimidin-9-yl)ethyl)amino)benzoic acid], the IC50 in assay [1] (Homo sapiens, SK-BR-3, 72 h) was more than 10000 nM; in assay [2] (Homo sapiens, T47D, 72 h), 187 nM.
As for `Cc1cc([C@@H](C)Nc2ccccc2C(=O)O)c2nc(N3C4CC5CC(C4)CC3C5)c(C)c(=O)n2c1` [Example 11-29, (R)-2-((1-(2-(2-azaadamantan-2-yl)-3,7-dimethyl-4-oxo-4H-pyrido[1,2-a]pyrimidin-9-yl)ethyl)amino)benzoic acid], the IC50 was more than 10000 nM in assay [1] (Homo sapiens, SK-BR-3, 72 h) and 244 nM in assay [2] (Homo sapiens, T47D, 72 h).
The corresponding values for `Cc1cc([C@@H](C)Nc2ccccc2C(=O)O)c2nc(N3CC4CCC3CC4O)c(C)c(=O)n2c1` (stereo partly drawn) [Example 11-30, 2-(((1R)-1-(2-(5-hydroxy-2-azabicyclo[2.2.2]octan-2-yl)-3,7-dimethyl-4-oxo-4H-pyrido[1,2-a]pyrimidin-9-yl)ethyl)amino)benzoic acid] are more than 10000 nM and 401 nM.
The like results for `Cc1cc([C@@H](C)Nc2ccccc2C(=O)O)c2nc(N3CC(O)C4CCCCC43)c(C)c(=O)n2c1` (stereo partly drawn) [Example 11-31, 2-(((1R)-1-(2-(3-hydroxyoctahydro-1H-indol-1-yl)-3,7-dimethyl-4-oxo-4H-pyrido[1,2-a]pyrimidin-9-yl)ethyl)amino)benzoic acid] were, in that order, more than 10000 nM and 328 nM.
The corresponding values for `Cc1cc([C@@H](C)Nc2ccccc2C(=O)O)c2nc(N3CC4CC3CC4c3ccccc3)c(C)c(=O)n2c1` (stereo partly drawn) [Example 11-32, 2-(((1R)-1-(3,7-dimethyl-4-oxo-2-(5-phenyl-2-azabicyclo[2.2.1]heptan-2-yl)-4H-pyrido[1,2-a]pyrimidin-9-yl)ethyl)amino)benzoic acid] are more than 10000 nM and 303 nM.
`Cc1cc([C@@H](C)Nc2ccccc2C(=O)O)c2nc(N3CC4C5CCC5C4C3)c(C)c(=O)n2c1` (stereo partly drawn) [Example 11-33, 2-(((1R)-1-(3,7-dimethyl-4-oxo-2-(8-azatricyclo[4.3.0.0^2,5]nonan-8-yl)-4H-pyrido[1,2-a]pyrimidin-9-yl)ethyl)amino)benzoic acid]: the IC50 is more than 10000 nM in assay [1] (Homo sapiens, SK-BR-3, 72 h) and 310 nM in assay [2] (Homo sapiens, T47D, 72 h).
`Cc1cc([C@@H](C)Nc2ccccc2C(=O)O)c2nc(N3CC4CC(C3)C4(C)O)c(C)c(=O)n2c1` (stereo partly drawn) [Example 11-34, 2-(((1R)-1-(2-(6-hydroxy-6-methyl-3-azabicyclo[3.1.1]heptan-3-yl)-3,7-dimethyl-4-oxo-4H-pyrido[1,2-a]pyrimidin-9-yl)ethyl)amino)benzoic acid]: the IC50 in assay [1] (Homo sapiens, SK-BR-3, 72 h) is more than 10000 nM; in assay [2] (Homo sapiens, T47D, 72 h), 215 nM.
Regarding `Cc1cc([C@@H](C)Nc2ccccc2C(=O)O)c2nc(N3CC4C5CCC(C5O)C4C3)c(C)c(=O)n2c1` (stereo partly drawn) [Example 11-35, 2-(((1R)-1-(2-(8-hydroxyoctahydro-2H-4,7-methanoisoindol-2-yl)-3,7-dimethyl-4-oxo-4H-pyrido[1,2-a]pyrimidin-9-yl)ethyl)amino)benzoic acid], the IC50 in assay [1] (Homo sapiens, SK-BR-3, 72 h) is more than 10000 nM; in assay [2] (Homo sapiens, T47D, 72 h), 136 nM.
The corresponding values for `[2H]C12CC(C3CCN(c4nc5c([C@@H](C)Nc6ccccc6C(=O)O)cc(C)cn5c(=O)c4C)CC3)(C1)C2` [Example 11-36, (R)-2-((1-(2-(4-(bicyclo[1.1.1]pentan-1-yl-3-d)piperidin-1-yl)-3,7-dimethyl-4-oxo-4H-pyrido[1,2-a]pyrimidin-9-yl)ethyl)amino)benzoic acid] are more than 10000 nM and 390 nM.
The corresponding values for `Cc1cc([C@@H](C)Nc2ccccc2C(=O)O)c2nc(N3CCN(c4c(C)cccc4C)CC3)c(C)c(=O)n2c1` [Example 11-37, (R)-2-((1-(2-(4-(2,6-dimethylphenyl)piperazin-1-yl)-3,7-dimethyl-4-oxo-4H-pyrido[1,2-a]pyrimidin-9-yl)ethyl)amino)benzoic acid] are more than 10000 nM and 816 nM.
The corresponding values for `Cc1cc([C@@H](C)Nc2ccccc2C(=O)O)c2nc(N3Cc4cccc(F)c4C3)c(C)c(=O)n2c1` [Example 11-38, (R)-2-((1-(2-(4-fluoroisoindolin-2-yl)-3,7-dimethyl-4-oxo-4H-pyrido[1,2-a]pyrimidin-9-yl)ethyl)amino)benzoic acid] are more than 10000 nM and 194 nM.
In the case of `COc1ccc(C2CCN(c3nc4c([C@@H](C)Nc5ccccc5C(=O)O)cc(C)cn4c(=O)c3C)CC2)cc1` [Example 11-39, (R)-2-((1-(2-(4-(4-methoxyphenyl)piperidin-1-yl)-3,7-dimethyl-4-oxo-4H-pyrido[1,2-a]pyrimidin-9-yl)ethyl)amino)benzoic acid], the IC50 in assay [1] (Homo sapiens, SK-BR-3, 72 h) was more than 10000 nM; in assay [2] (Homo sapiens, T47D, 72 h), 114 nM.
Regarding `Cc1cc([C@@H](C)Nc2ccccc2C(=O)O)c2nc(N3CCN(CC(F)F)CC3)c(C#N)c(=O)n2c1` [Example 11-42, (R)-2-((1-(3-cyano-2-(4-(2,2-difluoroethyl)piperazin-1-yl)-7-methyl-4-oxo-4H-pyrido[1,2-a]pyrimidin-9-yl)ethyl)amino)benzoic acid], the concentration for half-maximal inhibition (IC50) in assay [1] (Homo sapiens, SK-BR-3, 72 h) was more than 10000 nM; in assay [2] (Homo sapiens, T47D, 72 h) it was 172 nM.
As for `Cc1cc([C@H](C)Nc2ccc(F)nc2C(=O)O)c2nc(N3CCC(F)(F)CC3)c(C#N)c(=O)n2c1` [Example 11-43, (S)-3-((1-(3-cyano-2-(4,4-difluoropiperidin-1-yl)-7-methyl-4-oxo-4H-pyrido[1,2-a]pyrimidin-9-yl)ethyl)amino)-6-fluoropicolinic acid], the IC50 was more than 10000 nM in assay [1] (Homo sapiens, SK-BR-3, 72 h) and 372 nM in assay [2] (Homo sapiens, T47D, 72 h).
The corresponding values for `Cc1cc([C@@H](C)Nc2ccc(F)nc2C(=O)O)c2nc(N3CCC(F)(F)CC3)c(C#N)c(=O)n2c1` [Example 11-44, (R)-3-((1-(3-cyano-2-(4,4-difluoropiperidin-1-yl)-7-methyl-4-oxo-4H-pyrido[1,2-a]pyrimidin-9-yl)ethyl)amino)-6-fluoropicolinic acid] are more than 10000 nM and 9550 nM.
Turning to `Cc1cc([C@@H](C)Nc2ccc(F)nc2C(=O)O)c2nc(N3CCC(F)(F)CC3)c(C)c(=O)n2c1` [Example 11-45, (R)-3-((1-(2-(4,4-difluoropiperidin-1-yl)-3,7-dimethyl-4-oxo-4H-pyrido[1,2-a]pyrimidin-9-yl)ethyl)amino)-6-fluoropicolinic acid], the figures for the half-inhibitory concentration (IC50) in assay [1] and in assay [2] were more than 10000 nM and 2970 nM, respectively.

As usually defined, the IC50 is the concentration needed to halve the response being measured.

The values above are taken from patent publication US20260078120A1, “SUBSTITUTED PYRIDOPYRIMIDINONES” (MIRATI THERAPEUTICS, INC., priority 2022, published 2026).
